Measured values: patent US9168243B2, “Pharmaceutical compositions comprising 8-substituted dibenzylbutyrolactone lignans” (priority 2010, dated 2015)

What was measured:
Format in all cases: cell-based
[1] = system: non-malignant prostate epithelial RWPE-1 cells; assay: Caspase-3 activation by flow cytometry in a non-malignant prostate cell line; conditions: 40 μM NTG 1 h before izTRAIL in different concentrations, 20 h
Method: The LNCaP prostate cancer cells (clone FGC; EACC) were cultured in RPMI-1640 medium (Sigma-Aldrich) supplemented with 10% fetal calf serum (BioClear), 2 mM L-glutamin, 100 U/ml penicillin, 100 μg/ml streptomycin and 1 mM sodium pyruvate (Sigma-Aldrich). One day prior to treatment medium was changed to phenol red free RPMI-1640 (Gibco) with or without 1 nM synthetic androgen (Mibolerone). This medium was supplemented with 10% charcoal/dextran treated fetal bovine serum (Hyclone), L-glutamine, penicillin and streptomycin. SV40 transformed prostate epithelial RWPE-1 cell line was kindly provided by Professor Olli Kallioniemi. […]
Flow cytometric analysis of apoptosis with HTS platform was performed on cells that were plated on a 96-well plate as triplicate samples. […] After 10 minutes incubation at room temperature, the plate was analyzed with LSRII flow cytometer equipped with HTS platform (PE-A channel). […] The plate was analyzed with LSRII flow cytometer equipped with HTS platform (FSC, PE-A channel). […] Activated caspase-3 in cells was labeled with phycerythrin (PE)-conjugated antibody according to manufacturer's protocol (BD Pharmingen) and analyzed by FacsCalibur flow cytometer (FL-2, FSC). […]

LNCaP cells [2] = assay: Apoptosis after prolonged incubation with NTG alone; conditions: 0-100 μM NTG, 24-72 h
LNCaP cells [3] = assay: Clonogenic assay; conditions: 11 days
Method: Five hundred LNCaP cells were plated in 1 ml of culture medium and let to adhere prior to addition of the indicated treatments. After 11 days of incubation, cell colonies were fixed with glutaraldehyde (6.0% v/v), stained with crystal violet (0.5% w/v) and imaged using a digital camera.
To investigate the effects of NTG alone and in combination with TRAIL on colony formation ability, the LNCaP cells were plated in low confluency and treated for 11 days.

Question: Which results are given for `COc1cc(CC2COC(=O)C2(O)Cc2ccc(O)c(OC)c2)ccc1O` (stereo not shown) [NTG, Nortrachelogenin]?
Answer: sensitization of non-malignant cells to TRAIL (caspase-3 activation) [1]: did not display any sensitization to TRAIL; induction of apoptosis by NTG alone (LNCaP cells [2]): did not induce apoptosis; colony formation ability, single agent (LNCaP cells [3]; 10 ng/ml TRAIL or 40 μM NTG alone): clearly inhibited the growth of the plated cells; colony formation ability, NTG and TRAIL in combination (LNCaP cells [3]; 40 μM NTG and 10 ng/ml TRAIL): significant death of the cells that were seeded
